In patent publication US10160747B2, “Compounds and methods for kinase modulation, and indications therefor” (Plexxikon Inc., priority 2016, dated 2018):

What follows are compounds tested against T1, BA/F3-FLT3-ITD + D835Y (Homo sapiens, UniProt P36888, D835Y, cells depend on it, form not given) (assay: Engineered BA/F3 cell growth assay, FLT3 ITD/D835Y). Details: 3 d growth.
T1 sequence (P36888 with tags, fused parts or gaps INS600HVDFREYEYD/D835Y): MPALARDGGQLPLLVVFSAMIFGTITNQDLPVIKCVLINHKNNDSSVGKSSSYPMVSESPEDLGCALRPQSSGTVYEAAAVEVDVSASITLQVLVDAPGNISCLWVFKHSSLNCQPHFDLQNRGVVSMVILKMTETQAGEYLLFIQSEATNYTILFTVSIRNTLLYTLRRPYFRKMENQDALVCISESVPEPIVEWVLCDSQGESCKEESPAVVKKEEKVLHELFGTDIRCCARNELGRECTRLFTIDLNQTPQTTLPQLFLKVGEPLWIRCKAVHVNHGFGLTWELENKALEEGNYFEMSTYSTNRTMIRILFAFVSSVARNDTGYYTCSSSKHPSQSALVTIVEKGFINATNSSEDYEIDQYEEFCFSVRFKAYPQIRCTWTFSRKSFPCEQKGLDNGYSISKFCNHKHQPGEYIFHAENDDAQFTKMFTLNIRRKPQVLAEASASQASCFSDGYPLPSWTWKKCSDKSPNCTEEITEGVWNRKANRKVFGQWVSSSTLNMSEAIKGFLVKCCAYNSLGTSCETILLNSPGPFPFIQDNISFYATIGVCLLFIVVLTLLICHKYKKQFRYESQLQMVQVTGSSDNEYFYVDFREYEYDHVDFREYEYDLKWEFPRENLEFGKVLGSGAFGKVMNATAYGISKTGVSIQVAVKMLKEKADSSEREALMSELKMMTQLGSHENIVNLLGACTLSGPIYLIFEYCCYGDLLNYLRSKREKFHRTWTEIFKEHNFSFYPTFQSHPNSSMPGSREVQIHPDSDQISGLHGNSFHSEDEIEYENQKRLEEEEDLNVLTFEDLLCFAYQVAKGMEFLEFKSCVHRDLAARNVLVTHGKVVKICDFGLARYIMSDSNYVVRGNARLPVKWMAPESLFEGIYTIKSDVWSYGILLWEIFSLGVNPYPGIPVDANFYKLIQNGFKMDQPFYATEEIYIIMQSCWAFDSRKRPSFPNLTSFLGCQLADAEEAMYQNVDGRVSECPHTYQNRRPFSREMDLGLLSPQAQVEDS
Format: cell-based, murine
Method in brief: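 Murine Ba/F3 cells transfected with full-length FLT3 ITD/D835Y, grown without IL-3 so growth depends on FLT3. Seeded at 1×10^4 cells/well, 8-point 1:3 series to 1 μM top (0.2% DMSO), 3 days at 37 °C. CellTiter-Glo luminescence (ATP) versus concentration gave IC50.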
Compound `Cc1cc(-c2cnc3[nH]c(-c4ccccc4)cc3c2)ccc1CC(=O)Nc1cccc(C(F)(F)F)c1` [Compound P-0001, 2-[2-methyl-4-(2-phenyl-1H-pyrrolo[2,3-b]pyridin-5-yl)phenyl]-N-[3-(trifluoromethyl)phenyl]acetamide] has a GI50 of 0.0001 to 10 µM. `O=C(Cc1ccc(-c2cnc3[nH]c(-c4ccccc4)cc3c2)c(F)c1)Nc1cccc(C(F)(F)F)c1` [Compound P-0003, 2-[3-fluoro-4-(2-phenyl-1H-pyrrolo[2,3-b]pyridin-5-yl)phenyl]-N-[3-(trifluoromethyl)phenyl]acetamide] showed a GI50 of 0.0001 to 10 µM. `O=C(Cc1ccc(-c2cnc3[nH]c(-c4ccccc4)cc3c2)cc1F)Nc1ccnc(C(F)(F)F)c1` [Compound P-0004, 2-[2-fluoro-4-(2-phenyl-1H-pyrrolo[2,3-b]pyridin-5-yl)phenyl]-N-[2-(trifluoromethyl)-4-pyridyl]acetamide] showed a GI50 of 0.0001 to 10 µM. In the case of `O=C(Cc1ccc(-c2cnc3[nH]c(-c4ccccc4)cc3c2)cn1)Nc1ccnc(C(F)(F)F)c1` [Compound P-0005, 2-[5-(2-phenyl-1H-pyrrolo[2,3-b]pyridin-5-yl)-2-pyridyl]-N-[2-(trifluoromethyl)-4-pyridyl]acetamide], the GI50 is reported as 0.0001 to 10 µM. `Cc1ncc(NC(=O)Cc2ccc(-c3cnc(Nc4cnn(C)c4)nc3)cc2F)cc1C(F)(F)F` [Compound P-0091, 2-[2-fluoro-4-[2-[(1-methylpyrazol-4-yl)amino]pyrimidin-5-yl]phenyl]-N-[6-methyl-5-(trifluoromethyl)-3-pyridyl]acetamide] was tested, and the GI50 was 0.0001 to 10 µM. Work on `Cn1cc(Nc2ncc(-c3ccc(CC(=O)Nc4cnc(Cl)c(C(F)(F)F)c4)c(F)c3)cn2)cn1` [Compound P-0092, N-[6-chloro-5-(trifluoromethyl)-3-pyridyl]-2-[2-fluoro-4-[2-[(1-methylpyrazol-4-yl)amino]pyrimidin-5-yl]phenyl]acetamide] yielded a GI50 of 0.0001 to 10 µM. `CC(C)c1cc(NC(=O)Cc2ccc(-c3cnc(Nc4cnn(C)c4)nc3)cc2F)ccn1` [Compound P-0094, 2-[2-fluoro-4-[2-[(1-methylpyrazol-4-yl)amino]pyrimidin-5-yl]phenyl]-N-(2-isopropyl-4-pyridyl)acetamide] showed a GI50 of 0.0001 to 10 µM. In the case of `Cn1cc(Nc2ncc(-c3ccc(CC(=O)Nc4ccc(C(F)(F)F)nc4)cc3)cn2)cn1` [Compound P-0095, 2-[4-[2-[(1-methylpyrazol-4-yl)amino]pyrimidin-5-yl]phenyl]-N-[6-(trifluoromethyl)-3-pyridyl]acetamide], the GI50 is reported as 0.0001 to 10 µM. `Cn1cnc(Nc2ncc(-c3ccc(CC(=O)Nc4cc(C(F)(F)F)ccn4)c(F)c3)cn2)c1` [Compound P-0096, 2-[2-fluoro-4-[2-[(1-methylimidazol-4-yl)amino]pyrimidin-5-yl]phenyl]-N-[4-(trifluoromethyl)-2-pyridyl]acetamide] was tested, and the GI50 was 0.0001 to 10 µM. `Cn1cc(Nc2ncc(-c3ccc(CC(=O)Nc4ccnc(C5CC5)c4)cc3)cn2)cn1` [Compound P-0097, N-(2-cyclopropyl-4-pyridyl)-2-[4-[2-[(1-methylpyrazol-4-yl)amino]pyrimidin-5-yl]phenyl]acetamide] was tested, and the GI50 was 0.0001 to 10 µM. Compound `Cn1cc(Nc2ncc(-c3ccc(CC(=O)Nc4ccnc(C5CC5)c4)c(F)c3)cn2)cn1` [Compound P-0098, N-(2-cyclopropyl-4-pyridyl)-2-[2-fluoro-4-[2-[(1-methylpyrazol-4-yl)amino]pyrimidin-5-yl]phenyl]acetamide] has a GI50 of 0.0001 to 10 µM. Compound `Cc1ncc(NC(=O)Cc2ccc(-c3cnc(Nc4cn(C)cn4)nc3)cc2F)cc1C(F)(F)F` [Compound P-0099, 2-[2-fluoro-4-[2-[(1-methylimidazol-4-yl)amino]pyrimidin-5-yl]phenyl]-N-[6-methyl-5-(trifluoromethyl)-3-pyridyl]acetamide] has a GI50 of 0.0001 to 10 µM. With `Cn1cnc(Nc2ncc(-c3ccc(CC(=O)Nc4cnc(Cl)c(C(F)(F)F)c4)c(F)c3)cn2)c1` [Compound P-0100, N-[6-chloro-5-(trifluoromethyl)-3-pyridyl]-2-[2-fluoro-4-[2-[(1-methylimidazol-4-yl)amino]pyrimidin-5-yl]phenyl]acetamide] the GI50 was 0.0001 to 10 µM. For `COc1ncc(NC(=O)Cc2ccc(-c3cnc(Nc4cn(C)cn4)nc3)cc2F)cc1C(F)(F)F` [Compound P-0101, 2-[2-fluoro-4-[2-[(1-methylimidazol-4-yl)amino]pyrimidin-5-yl]phenyl]-N-[6-methoxy-5-(trifluoromethyl)-3-pyridyl]acetamide], the GI50 was 0.0001 to 10 µM. Work on `Cn1cnc(Nc2ncc(-c3ccc(CC(=O)Nc4cc(C(C)(F)F)ccn4)c(F)c3)cn2)c1` [Compound P-0102, N-[4-(1,1-difluoroethyl)-2-pyridyl]-2-[2-fluoro-4-[2-[(1-methylimidazol-4-yl)amino]pyrimidin-5-yl]phenyl]acetamide] yielded a GI50 of 0.0001 to 10 µM. `Cn1cnc(Nc2ncc(-c3ccc(CC(=O)Nc4cncc(C(C)(F)F)c4)c(F)c3)cn2)c1` [Compound P-0103, N-[5-(1,1-difluoroethyl)-3-pyridyl]-2-[2-fluoro-4-[2-[(1-methylimidazol-4-yl)amino]pyrimidin-5-yl]phenyl]acetamide] showed a GI50 of 0.0001 to 10 µM. Work on `Cn1cc(Nc2ncc(-c3ccc(CC(=O)Nc4cnc(F)c(C(C)(F)F)c4)cc3)cn2)cn1` [Compound P-0104, N-[5-(1,1-difluoroethyl)-6-fluoro-3-pyridyl]-2-[4-[2-[(1-methylpyrazol-4-yl)amino]pyrimidin-5-yl]phenyl]acetamide] yielded a GI50 of 0.0001 to 10 µM. With `Cn1cc(Nc2ncc(-c3ccc(CC(=O)Nc4cnc(F)c(C(C)(F)F)c4)c(F)c3)cn2)cn1` [Compound P-0105, N-[5-(1,1-difluoroethyl)-6-fluoro-3-pyridyl]-2-[2-fluoro-4-[2-[(1-methylpyrazol-4-yl)amino]pyrimidin-5-yl]phenyl]acetamide] the GI50 was 0.0001 to 10 µM. With `Cn1cc(Nc2ncc(-c3ccc(CC(=O)Nc4ccc(C(F)(F)F)cn4)c(F)c3)cn2)cn1` [Compound P-0106, 2-[2-fluoro-4-[2-[(1-methylpyrazol-4-yl)amino]pyrimidin-5-yl]phenyl]-N-[5-(trifluoromethyl)-2-pyridyl]acetamide] the GI50 was 0.0001 to 10 µM. `Cn1cc(Nc2ncc(-c3ccc(CC(=O)Nc4cc(Cl)c(C5CC5)cn4)c(F)c3)cn2)cn1` [Compound P-0107, N-(4-chloro-5-cyclopropyl-2-pyridyl)-2-[2-fluoro-4-[2-[(1-methylpyrazol-4-yl)amino]pyrimidin-5-yl]phenyl]acetamide] gave a GI50 of 0.0001 to 10 µM. Compound `Cn1cc(Nc2ncc(-c3ccc(CC(=O)Nc4ccc(C(C)(C)C#N)nc4)c(F)c3)cn2)cn1` [Compound P-0108, N-[6-(1-cyano-1-methyl-ethyl)-3-pyridyl]-2-[2-fluoro-4-[2-[(1-methylpyrazol-4-yl)amino]pyrimidin-5-yl]phenyl]acetamide] has a GI50 of 0.0001 to 10 µM. With `Cn1cc(Nc2ncc(-c3ccc(CC(=O)Nc4ccc(C(F)(F)F)cn4)cc3)cn2)cn1` [Compound P-0109, 2-[4-[2-[(1-methylpyrazol-4-yl)amino]pyrimidin-5-yl]phenyl]-N-[5-(trifluoromethyl)-2-pyridyl]acetamide] the GI50 was 0.0001 to 10 µM. Compound `Cn1cc(Nc2ncc(-c3ccc(CC(=O)Nc4ccc(C(F)(F)F)nc4)c(F)c3)cn2)cn1` [Compound P-0110, 2-[2-fluoro-4-[2-[(1-methylpyrazol-4-yl)amino]pyrimidin-5-yl]phenyl]-N-[6-(trifluoromethyl)-3-pyridyl]acetamide] has a GI50 of 0.0001 to 10 µM. Work on `CCc1cncc(NC(=O)Cc2ccc(-c3cnc(Nc4cnn(C)c4)nc3)cc2F)c1` [Compound P-0111, N-(5-ethyl-3-pyridyl)-2-[2-fluoro-4-[2-[(1-methylpyrazol-4-yl)amino]pyrimidin-5-yl]phenyl]acetamide] yielded a GI50 of 0.0001 to 10 µM. Compound `Cn1cc(Nc2ncc(-c3ccc(CC(=O)Nc4cccnc4)cc3)cn2)cn1` [Compound P-0131, 2-[4-[2-[(1-methylpyrazol-4-yl)amino]pyrimidin-5-yl]phenyl]-N-(3-pyridyl)acetamide] has a GI50 of 0.0001 to 10 µM. For `Cn1cc(Nc2ncc(-c3ccc(CC(=O)NCc4cccnc4)cc3)cn2)cn1` [Compound P-0132, 2-[4-[2-[(1-methylpyrazol-4-yl)amino]pyrimidin-5-yl]phenyl]-N-(3-pyridylmethyl)acetamide], the GI50 was 0.0001 to 10 µM. Work on `COc1cncc(NC(=O)Cc2ccc(-c3cnc(Nc4cnn(C)c4)nc3)cc2)c1` [Compound P-0133, N-(5-methoxy-3-pyridyl)-2-[4-[2-[(1-methylpyrazol-4-yl)amino]pyrimidin-5-yl]phenyl]acetamide] yielded a GI50 of 0.0001 to 10 µM.
